Columns and labels:
Experiment in all cases: Km determination of hydroxy acid oxidase activity (DCIP-coupled)
Assay type in all cases: biochemical
rat Hao2 = target: T1, rat Hao2 (Rattus norvegicus, UniProt Q07523); conditions: rat Hao2 enzyme activity against the substrate; FIG. 1B
T1 sequence (Q07523 1-353): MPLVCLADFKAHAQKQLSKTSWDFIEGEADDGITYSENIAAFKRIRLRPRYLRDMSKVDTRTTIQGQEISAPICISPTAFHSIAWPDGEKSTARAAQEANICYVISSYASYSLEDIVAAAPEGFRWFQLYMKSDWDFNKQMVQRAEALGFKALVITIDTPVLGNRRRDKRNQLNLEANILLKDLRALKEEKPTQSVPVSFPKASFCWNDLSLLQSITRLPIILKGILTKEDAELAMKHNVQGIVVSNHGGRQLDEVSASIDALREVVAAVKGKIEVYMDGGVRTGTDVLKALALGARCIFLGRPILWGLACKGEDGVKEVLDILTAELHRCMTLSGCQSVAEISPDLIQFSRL
Experimental: (§1) The hydroxyl acid oxidase activity of the Hao enzymes was assayed for oxidation of the enzyme substrate 2-hydroxyoctanoate by monitoring the coupled reduction of 2,6-dichloroindophenol (DCIP) at 605 nm.
(§2) In order to determine the Km of the enzyme for a given substrate, 20 μl/well of various concentrations of the substrate 2-hydroxyoctanoate were diluted in the assay buffer (100 mM Kpi, 1 mM EDTA and 0.1% BSA) and 175 μl/well of 50 μM 2-6-dichloroindophenol (DCIP) diluted in the same assay buffer was added to a 96-well plate. The reaction was started by the addition of 5 μl/well of the Hao enzyme, and the change in A605 at room temperature (18° C.) was measured over time. An extinction coefficient of […] for DCIP at 605 nm may be used for all calculations. One unit of activity may be defined as the reduction of 1 μmol of DCIP in 1 min (see Jones, J. M., et al., J. Biol. Chem. 275:12590-12597, 2000).

human Hao2 = target: T2, human Hao2 (Homo sapiens, UniProt Q9NYQ3); conditions: human Hao2 enzyme activity against the substrate; FIG. 1A
T2 construct: made in house; host or cells: E. coli BL21-codonplus-RIPL
T2 sequence (Q9NYQ3 1-351): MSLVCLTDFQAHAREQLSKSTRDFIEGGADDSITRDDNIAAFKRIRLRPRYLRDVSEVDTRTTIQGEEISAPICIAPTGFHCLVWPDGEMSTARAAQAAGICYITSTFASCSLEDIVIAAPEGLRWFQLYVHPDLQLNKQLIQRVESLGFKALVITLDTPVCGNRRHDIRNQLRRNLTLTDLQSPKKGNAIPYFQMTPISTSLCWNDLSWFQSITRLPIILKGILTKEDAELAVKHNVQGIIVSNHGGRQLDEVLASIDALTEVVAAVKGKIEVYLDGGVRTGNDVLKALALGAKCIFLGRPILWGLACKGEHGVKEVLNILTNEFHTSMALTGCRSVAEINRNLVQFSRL
Experimental: as §1, §2

mouse Hao3 = target: T3, mouse Hao3 (Mus musculus, UniProt Q9NYQ2, S203T); conditions: mouse Hao3 enzyme activity against the substrate; FIG. 1C
T3 construct: made in house; host or cells: E. coli BL21-codonplus-RIPL
T3 sequence (Q9NYQ2 1-353 S203T): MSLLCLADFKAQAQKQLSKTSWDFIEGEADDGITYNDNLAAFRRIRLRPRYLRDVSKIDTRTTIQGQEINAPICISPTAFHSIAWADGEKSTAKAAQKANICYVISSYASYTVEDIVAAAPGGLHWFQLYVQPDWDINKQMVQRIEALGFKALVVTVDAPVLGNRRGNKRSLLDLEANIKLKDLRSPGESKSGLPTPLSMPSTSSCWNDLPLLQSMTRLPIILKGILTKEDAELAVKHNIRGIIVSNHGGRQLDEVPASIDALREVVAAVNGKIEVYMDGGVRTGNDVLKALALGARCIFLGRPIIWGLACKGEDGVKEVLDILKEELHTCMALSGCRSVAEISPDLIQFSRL
Experimental: as §1, §2

## CCCCCCC(O)C(=O)O (stereo not drawn) [2-hydroxyoctanoate]
Rat Hao2
  Km: 43 µM
Human Hao2
  Km: 735 µM
Mouse Hao3
  Km: 76 µM

Reference: patent US7727740B1, “Methods for determining whether a chemical agent modulates enzymatic activity of an L-2-hydroxy acid oxidase” (Merck Sharp & Dohme Corp., priority 2005, dated 2010)
